From ChEMBL document CHEMBL4004838, “Design and synthesis of novel phenyl -1, 4-beta-carboline-hybrid molecules as potential anticancer agents” (Eur J Med Chem, 2017)

Assays:
Assay type in all cases: functional
HL-60(TB) = assay: Growth inhibition of human HL-60(TB) cells incubated for 48 hrs by sulforhodamine B assay; conditions: HL-60, 48 h
HOP-62 [1] = assay: Growth inhibition of human HOP62 cells incubated for 48 hrs by sulforhodamine B assay; conditions: HOP-62, 48 h
NCI-H226 = assay: Growth inhibition of human NCI-H226 cells incubated for 48 hrs by sulforhodamine B assay; conditions: NCI-H226, 48 h
HCC 2998 = assay: Growth inhibition of human HCC2998 cells incubated for 48 hrs by sulforhodamine B assay; conditions: HCC 2998, 48 h; for TGI: read-out: pTGI (converted)
HT-29 = assay: Growth inhibition of human HT-29 cells incubated for 48 hrs by sulforhodamine B assay; conditions: HT-29, 48 h
SF-268 = assay: Growth inhibition of human SF268 cells incubated for 48 hrs by sulforhodamine B assay; conditions: SF-268, 48 h
OVCAR-4 [2] = assay: Growth inhibition of human OVCAR4 cells incubated for 48 hrs by sulforhodamine B assay; conditions: OVCAR-4, 48 h
MCF7 [3] = assay: Growth inhibition of human MCF7 cells incubated for 48 hrs by sulforhodamine B assay; conditions: MCF7, 48 h; for TGI: read-out: pTGI (converted)
HOP-62 [4] = assay: Growth inhibition of human HOP62 cells assessed as cell growth at 0.01 uM incubated for 48 hrs by sulforhodamine B assay relative to control; conditions: HOP-62, 48 h, read-out: Activity
NCI-H322M [5] = assay: Growth inhibition of human NCI-H322M cells assessed as cell growth at 0.01 uM incubated for 48 hrs by sulforhodamine B assay relative to control; conditions: read-out: Activity
OVCAR-4 [6] = assay: Growth inhibition of human OVCAR4 cells assessed as cell growth at 0.01 uM incubated for 48 hrs by sulforhodamine B assay relative to control; conditions: OVCAR-4, 48 h, read-out: Activity
ACHN = assay: Growth inhibition of human ACHN cells assessed as cell growth at 0.01 uM incubated for 48 hrs by sulforhodamine B assay relative to control; conditions: read-out: Activity
BT-549 = assay: Growth inhibition of human BT549 cells assessed as cell growth at 0.01 uM incubated for 48 hrs by sulforhodamine B assay relative to control; conditions: BT-549, 48 h, read-out: Activity
CAKI-1 = assay: Growth inhibition of human Caki1 cells assessed as cell growth at 0.1 uM incubated for 48 hrs by sulforhodamine B assay relative to control; conditions: CAKI-1, 48 h, read-out: Activity
PC-3 = assay: Growth inhibition of human PC3 cells assessed as cell growth at 0.1 uM incubated for 48 hrs by sulforhodamine B assay relative to control; conditions: PC-3, 48 h, read-out: Activity
MDA-MB-231 = assay: Growth inhibition of human MDA-MB-231 cells assessed as cell growth at 0.1 uM incubated for 48 hrs by sulforhodamine B assay relative to control; conditions: MDA-MB-231, 48 h, read-out: Activity
CCRF-CEM = assay: Growth inhibition of human CCRF-CEM cells assessed as cell growth at 1 uM incubated for 48 hrs by sulforhodamine B assay relative to control; conditions: read-out: Activity
NCI-H522 = assay: Growth inhibition of human NCI-H522 cells assessed as cell growth at 1 uM incubated for 48 hrs by sulforhodamine B assay relative to control; conditions: NCI-H522, 48 h, read-out: Activity
COLO 205 = assay: Growth inhibition of human COLO205 cells assessed as cell growth at 1 uM incubated for 48 hrs by sulforhodamine B assay relative to control; conditions: COLO 205, 48 h, read-out: Activity
SW-620 = assay: Growth inhibition of human SW620 cells assessed as cell growth at 1 uM incubated for 48 hrs by sulforhodamine B assay relative to control; conditions: SW-620, 48 h, read-out: Activity
U-251 = assay: Growth inhibition of human U251 cells assessed as cell growth at 1 uM incubated for 48 hrs by sulforhodamine B assay relative to control; conditions: U-251, 48 h, read-out: Activity
IGROV-1 = assay: Growth inhibition of human IGROV1 cells assessed as cell growth at 1 uM incubated for 48 hrs by sulforhodamine B assay relative to control; conditions: IGROV-1, 48 h, read-out: Activity
NCI/ADR-RES = assay: Growth inhibition of human NCI-ADR-RES cells assessed as cell growth at 1 uM incubated for 48 hrs by sulforhodamine B assay relative to control; conditions: read-out: Activity
TK-10 = assay: Growth inhibition of human TK10 cells assessed as cell growth at 1 uM incubated for 48 hrs by sulforhodamine B assay relative to control; conditions: TK-10, 48 h, read-out: Activity
DU-145 = assay: Growth inhibition of human DU145 cells assessed as cell growth at 1 uM incubated for 48 hrs by sulforhodamine B assay relative to control; conditions: DU-145, 48 h, read-out: Activity
MCF7 [7] = assay: Growth inhibition of human MCF7 cells assessed as cell growth at 1 uM incubated for 48 hrs by sulforhodamine B assay relative to control; conditions: MCF7, 48 h, read-out: Activity
NCI-H322M [8] = assay: Growth inhibition of human NCI-H322M cells assessed as cell growth at 100 uM incubated for 48 hrs by sulforhodamine B assay relative to control; conditions: read-out: Activity
HCT-116 = assay: Growth inhibition of human HCT116 cells assessed as cell growth at 100 uM incubated for 48 hrs by sulforhodamine B assay relative to control; conditions: HCT-116, 48 h, read-out: Activity
T47D = assay: Growth inhibition of human T47D cells assessed as cell growth at 100 uM incubated for 48 hrs by sulforhodamine B assay relative to control; conditions: read-out: Activity
[9] = read-out: LC50 (the source's name)
[10] = read-out: pLC50 (the source's name) (converted)

c1ccc2c3c([nH]c2c1)C(c1ccc(C2NCCc4c2[nH]c2ccccc42)cc1)NCC3 (racemic)
GI50 (HL-60(TB); read-out: GI50): 1.13 µM
CC50 (HL-60(TB); [9]): 6.99 µM
TGI (HL-60(TB); read-out: TGI): 2.81 µM
GI50 (HL-60(TB); read-out: pGI50 (converted)): 1.12 µM
CC50 (HL-60(TB); [10]): 6.92 µM
TGI (HL-60(TB); read-out: pTGI (converted)): 2.82 µM
GI50 (HOP-62 [1]; read-out: GI50): 1.31 µM
TGI (HOP-62 [1]; read-out: TGI): 2.79 µM
GI50 (HOP-62 [1]; read-out: pGI50 (converted)): 1.32 µM
TGI (HOP-62 [1]; read-out: pTGI (converted)): 2.82 µM
GI50 (NCI-H226; read-out: GI50): 1.96 µM
CC50 (NCI-H226; [9]): 9.1 µM
TGI (NCI-H226; read-out: TGI): 4.23 µM
GI50 (NCI-H226; read-out: pGI50 (converted)): 1.95 µM
CC50 (NCI-H226; [10]): 9.12 µM
TGI (NCI-H226; read-out: pTGI (converted)): 4.27 µM
GI50 (HCC 2998; read-out: pGI50 (converted)): 0.275 µM
TGI (HCC 2998): 1.29 µM
GI50 (HT-29; read-out: GI50): 2.8 µM
CC50 (HT-29; [9]): 3.92 µM
TGI (HT-29; read-out: TGI): 7.35 µM
GI50 (HT-29; read-out: pGI50 (converted)): 0.282 µM
CC50 (HT-29; [10]): 3.89 µM
TGI (HT-29; read-out: pTGI (converted)): 0.741 µM
GI50 (SF-268; read-out: GI50): 1.12 µM
CC50 (SF-268; [9]): 5.89 µM
TGI (SF-268; read-out: TGI): 2.57 µM
GI50 (SF-268; read-out: pGI50 (converted)): 1.12 µM
CC50 (SF-268; [10]): 5.89 µM
TGI (SF-268; read-out: pTGI (converted)): 2.57 µM
GI50 (OVCAR-4 [2]; read-out: GI50): 1.14 µM
CC50 (OVCAR-4 [2]; [9]): 5.61 µM
TGI (OVCAR-4 [2]; read-out: TGI): 2.53 µM
GI50 (OVCAR-4 [2]; read-out: pGI50 (converted)): 1.15 µM
CC50 (OVCAR-4 [2]; [10]): 5.62 µM
TGI (OVCAR-4 [2]; read-out: pTGI (converted)): 2.51 µM
CC50 (MCF7 [3]; [9]): 6.1 µM
GI50 (MCF7 [3]; read-out: pGI50 (converted)): 0.389 µM
CC50 (MCF7 [3]; [10]): 6.17 µM
TGI (MCF7 [3]): 1.74 µM
growth at 0.01 µM (HOP-62 [4]): 84%
growth at 0.01 µM (NCI-H322M [5]): 92%
growth at 0.01 µM (OVCAR-4 [6]): 88%
growth at 0.01 µM (ACHN): 92%
growth at 0.01 µM (BT-549): 87%
growth at 0.1 µM (CAKI-1): 93%
growth at 0.1 µM (PC-3): 94%
growth at 0.1 µM (MDA-MB-231): 97%
growth at 1 µM (CCRF-CEM): 21%
growth at 1 µM (NCI-H522): 16%
growth at 1 µM (COLO 205): 48%
growth at 1 µM (SW-620): 86%
growth at 1 µM (U-251): 4%
growth at 1 µM (IGROV-1): 70%
growth at 1 µM (NCI/ADR-RES): 78%
growth at 1 µM (TK-10): 97%
growth at 1 µM (DU-145): 43%
growth at 1 µM (MCF7 [7]): 22%
growth at 100 µM (NCI-H322M [8]): 96%
growth at 100 µM (HCT-116): 92%
growth at 100 µM (T47D): -72%

c1ccc2[nH]c(-c3ccc(-c4nccc5c4[nH]c4ccccc45)cc3)nc2c1
GI50 (HL-60(TB); read-out: GI50): 2.03 µM
CC50 (HL-60(TB); [9]): > 1 µM
TGI (HL-60(TB); read-out: TGI): 4.59 µM
GI50 (HL-60(TB); read-out: pGI50 (converted)): 2.04 µM
CC50 (HL-60(TB); [10]): > 100 µM
TGI (HL-60(TB); read-out: pTGI (converted)): 4.57 µM
GI50 (HOP-62 [1]; read-out: GI50): 2.8 µM
LC50 (concentration killing 50% of cells) (HOP-62 [1]; read-out: LC50): 5.31 µM
GI50 (HOP-62 [1]; read-out: pGI50 (converted)): 2.82 µM
LC50 (concentration killing 50% of cells) (HOP-62 [1]; read-out: pLC50 (converted)): 53.7 µM
TGI (HOP-62 [1]; read-out: pTGI (converted)): 10.7 µM
GI50 (NCI-H226; read-out: GI50): 2.27 µM
CC50 (NCI-H226; [9]): 9.73 µM
TGI (NCI-H226; read-out: TGI): 5.56 µM
GI50 (NCI-H226; read-out: pGI50 (converted)): 2.29 µM
CC50 (NCI-H226; [10]): 97.7 µM
TGI (NCI-H226; read-out: pTGI (converted)): 5.5 µM
GI50 (HCC 2998; read-out: GI50): 3.96 µM
LC50 (HCC 2998; read-out: LC50): 5.31 µM
GI50 (HCC 2998; read-out: pGI50 (converted)): 3.98 µM
LC50 (HCC 2998; read-out: pLC50 (converted)): 53.7 µM
TGI (HCC 2998): 15.8 µM
GI50 (HT-29; read-out: GI50): 2.19 µM
CC50 (HT-29; [9]): 8.97 µM
TGI (HT-29; read-out: TGI): 4.43 µM
GI50 (HT-29; read-out: pGI50 (converted)): 2.19 µM
CC50 (HT-29; [10]): 8.91 µM
TGI (HT-29; read-out: pTGI (converted)): 4.47 µM
GI50 (SF-268; read-out: GI50): 2.89 µM
CC50 (SF-268; [9]): 8.98 µM
GI50 (SF-268; read-out: pGI50 (converted)): 2.88 µM
CC50 (SF-268; [10]): 89.1 µM
TGI (SF-268; read-out: pTGI (converted)): 10.2 µM
GI50 (OVCAR-4 [2]; read-out: GI50): 2.27 µM
TGI (OVCAR-4 [2]; read-out: TGI): 7.75 µM
GI50 (OVCAR-4 [2]; read-out: pGI50 (converted)): 2.29 µM
CC50 (OVCAR-4 [2]; [10]): > 100 µM
TGI (OVCAR-4 [2]; read-out: pTGI (converted)): 7.76 µM
GI50 (MCF7 [3]; read-out: GI50): 3.56 µM
CC50 (MCF7 [3]; [9]): 8.86 µM
GI50 (MCF7 [3]; read-out: pGI50 (converted)): 3.55 µM
CC50 (MCF7 [3]; [10]): 89.1 µM
TGI (MCF7 [3]): 17.4 µM
growth at 0.01 µM (HOP-62 [4]): 86%
growth at 0.01 µM (NCI-H322M [5]): 92%
growth at 0.01 µM (OVCAR-4 [6]): 90%
growth at 0.01 µM (ACHN): 99%
growth at 0.01 µM (BT-549): 91%
growth at 0.1 µM (CAKI-1): 96%
growth at 0.1 µM (PC-3): 100%
growth at 0.1 µM (MDA-MB-231): 94%
growth at 1 µM (CCRF-CEM): 103%
growth at 1 µM (NCI-H522): 91%
growth at 1 µM (COLO 205): 93%
growth at 1 µM (SW-620): 96%
growth at 1 µM (U-251): 98%
growth at 1 µM (IGROV-1): 102%
growth at 1 µM (NCI/ADR-RES): 98%
growth at 1 µM (TK-10): 96%
growth at 1 µM (DU-145): 97%
growth at 1 µM (MCF7 [7]): 91%
growth at 100 µM (NCI-H322M [8]): 75%
growth at 100 µM (HCT-116): 78%
growth at 100 µM (T47D): 53%
